The target in one test is T1, TRET1 (Polypedilum vanderplanki, UniProt A5LGM7).
T1 construct: ORF of either Tret1, DmTret1, AmTret1, AgTret1 or BmTret1 cDNA was amplified with PCR; expressed in transfected cells; host or cells: Xenopus laevis oocytes injected with cRNA
T1 sequence (A5LGM7 1-504): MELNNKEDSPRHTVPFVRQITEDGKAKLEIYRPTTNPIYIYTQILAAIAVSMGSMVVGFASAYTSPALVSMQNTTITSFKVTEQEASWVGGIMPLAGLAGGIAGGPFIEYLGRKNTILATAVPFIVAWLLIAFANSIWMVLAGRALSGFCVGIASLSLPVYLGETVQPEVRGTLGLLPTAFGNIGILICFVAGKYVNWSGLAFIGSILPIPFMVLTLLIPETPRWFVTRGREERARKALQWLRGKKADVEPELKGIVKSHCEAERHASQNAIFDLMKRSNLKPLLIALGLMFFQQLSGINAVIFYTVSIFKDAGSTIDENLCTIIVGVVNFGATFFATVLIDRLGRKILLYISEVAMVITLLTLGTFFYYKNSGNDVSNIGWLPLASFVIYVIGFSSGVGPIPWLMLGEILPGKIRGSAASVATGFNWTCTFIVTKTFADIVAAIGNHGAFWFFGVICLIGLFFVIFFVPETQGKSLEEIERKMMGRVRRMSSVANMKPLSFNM
In kind it is cell-based. To be noted: for effect on the transport activity of TRET1: 105 mM trehalose, various concentrations of ionophore/uncoupler. An excerpt: (§1) The capped RNA (cRNA) expression vector pTRET1-XbG-ev1 series was constructed as follows: ORF of either Tret1, DmTret1, AmTret1, AgTret1 or BmTret1 cDNA was amplified with PCR using specific primers containing Bgl II site at the 5′-end on each primer, respectively. The PCR products were digested with the restriction enzymes, and cloned into the site of Bgl II in pXbG-ev1 (Preston, G. M., et al. (1992) Science 256, 385-387). ORF of hGLUT1 cDNA was obtained by digestion of pSPMM1 with BamH I, and then subcloned into the site of Bgl II in pXbG-2. Template DNAs for cRNA synthesis were amplified from the corresponding cRNA expression vectors with a high fidelity DNA polymerase, KOD—Plus—, (TOYOBO). The cRNAs were synthesized with mMESSAGE mMACHINE T7 Kit (Ambion), and then purified with RNeasy MiniElute Cleanup kit (Qiagen).
Stage V or VI oocytes were extirpated from X. laevis females, and digested ovarian lobes with 0.2% (w/v) collagenase, type II (Sigma-Aldrich) in Ca^2+-free modified Barth's saline (MBS; 88.0 mM NaCl, 1.0 mM KCl, 2.4 mM NaHCO3, 15.0 mM Tris-Cl, 0.82 mM MgSO4, […] penicillin and streptomycin, pH7.6) at 15° C. for 3 h. The oocytes were microinjected with 40 nl of either 1 ng/nl of the TRET1::AcGFP1 or AcGFP1 cRNA, or nuclease-free water (Invitrogen) as a negative control. In order to express TRET1, the oocytes were incubated in MBS (containing 0.41 mM CaCl2) for 3-4 days after injection at 15° C. Fluorescence images of the oocytes injected with the cRNA were observed and analyzed with a fluorescence microscope BZ-8000 (KEYENCE).
(§2) All uptake assays for zero-trans trehalose and/or other sugars were performed using Xenopus oocytes expressing TRET1 at 15° C. in MBS containing appropriate concentrations of sugars. Sugar concentrations were determined using HPLC (Watanabe, M., et al. (2002) J Exp Biol 205, 2799-2802). All assays were carried out in triplicate.
(§3) Xenopus oocytes expressing either TRET1 or hGLUT1 were incubated in 105 mM of various sugars for 3 h. Tre: trehalose; Mal: maltose; Suc: sucrose; Lac: lactose; MAG: methyl-a-glucopyranoside; and 2-DOG: 2-deoxy-glucose (FIG. 3B).
In General, transporters contain two sub-classes: facilitated transporters and secondary active transporters. Activities of secondary active transporters are dependent on the electrochemical membrane potential resulting from the distribution of ions such as H^+. For example, proton-dependent MAL11/AGT1 can act only under acidic extracellular conditions (Stambuk, B. U., et al. (1996) Eur J Biochem 237, 876-881). On the other hand, facilitated transporters function independently of the electrochemical membrane potential. Xenopus oocytes expressing TRET1 were incubated in 105 mM trehalose at pH 4.2 and 7.6 for 3 h.
Xenopus oocytes expressing TRET1 were incubated in 105 mM trehalose with either control buffer (Mock; 0.1% acetone), or buffer containing various concentrations of nigericin (Na^+, K^+-ionophore), valinomycin (K^+-ionophore) or CCCP (H^+-ionophore, uncoupler) for 3 h.
In general, facilitated transporters enable their substrates to flow across membranes down concentration gradients. Xenopus oocytes expressing TRET1 were first incubated in 105 mM trehalose for 3 h, and then transferred into trehalose-free buffer and trehalose content was examined over time.
Xenopus oocytes expressing TRET1 were incubated in various concentrations of trehalose for 15 min. Uptake data were fitted to the Michaelis-Menten and Eadie-Hofstee (inset of FIG. 9) equations.

Another test addresses T2, hGLUT1 (Homo sapiens, UniProt P11166).
T2 construct: ORF of hGLUT1 cDNA was obtained by digestion of pSPMM1 with BamH I; expressed in transfected cells; host or cells: Xenopus laevis oocytes injected with cRNA
T2 sequence (P11166 1-492): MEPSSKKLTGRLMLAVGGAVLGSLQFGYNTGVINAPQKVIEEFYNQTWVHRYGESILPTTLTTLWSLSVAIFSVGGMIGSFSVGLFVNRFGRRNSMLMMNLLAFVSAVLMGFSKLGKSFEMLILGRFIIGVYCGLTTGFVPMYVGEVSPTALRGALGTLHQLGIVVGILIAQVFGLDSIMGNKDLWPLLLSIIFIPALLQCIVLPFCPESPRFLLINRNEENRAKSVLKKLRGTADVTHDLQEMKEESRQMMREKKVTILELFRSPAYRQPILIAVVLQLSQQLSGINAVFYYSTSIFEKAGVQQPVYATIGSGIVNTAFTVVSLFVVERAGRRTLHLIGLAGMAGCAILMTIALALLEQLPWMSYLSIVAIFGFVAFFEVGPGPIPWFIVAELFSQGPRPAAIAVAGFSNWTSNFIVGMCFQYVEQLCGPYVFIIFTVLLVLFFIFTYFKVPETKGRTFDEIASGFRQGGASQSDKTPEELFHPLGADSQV
Briefly: Sugar uptake assay in Xenopus oocytes expressing hGLUT1. In kind it is cell-based. To be noted: 105 mM of sugar, 3 h.
Text: as §1, §2, §3

Where [1] appears, read: 105 mM of sugar, 3 h, Xenopus oocytes.

Read-outs that look alike come from different tables or passages of the source.

For `O=CC[C@@H](O)[C@H](O)[C@H](O)CO` [2-DOG, 2-deoxy-glucose], at TRET1, the “transport of sugar by TRET1 (substrate selectivity)” value was “transported at a much lower rate”. Besides, on hGLUT1, the “transport of sugar by Glut1 gene product (substrate selectivity)” value is recorded as “transported”.

Take `OC[C@H]1O[C@@H](O[C@H]2[C@H](O)[C@@H](O)C(O)O[C@@H]2CO)[C@H](O)[C@@H](O)[C@H]1O` (stereo partly drawn) [lactose, 4-O-b-D-galactopyranosyl-D-glucose]: the “transport of sugar by TRET1 (substrate selectivity)” value at TRET1 (setting [1]) is “not transported”.

For the compound `N#CC(C#N)=NNc1cccc(Cl)c1` [CCCP, carbonylcyanide m-chlorophenylhydrazone], the “effect on the transport activity of TRET1” value (shortened to “effect”) on TRET1 (3 h) is recorded as “did not significantly affect”.

With `OC[C@H]1O[C@H](O[C@H]2[C@H](O)[C@@H](O)[C@H](O)O[C@@H]2CO)[C@H](O)[C@@H](O)[C@@H]1O` [Maltose, maltose], at TRET1 (setting [1]), the “transport of sugar by TRET1 (substrate selectivity)” value is reported as “not transported”.

As for `CC(C)[C@@H]1NC(=O)[C@H](C)OC(=O)[C@@H](C(C)C)NC(=O)[C@@H](C(C)C)OC(=O)[C@H](C(C)C)NC(=O)[C@H](C)OC(=O)[C@@H](C(C)C)NC(=O)[C@@H](C(C)C)OC(=O)[C@H](C(C)C)NC(=O)[C@H](C)OC(=O)[C@@H](C(C)C)NC(=O)[C@@H](C(C)C)OC1=O` [valinomycin], the “effect” value at TRET1 (3 h) is given as “did not significantly affect”.

For the compound `COC1OC(CO)C(O)C(O)C1O` (stereo not drawn) [MAG, methyl-a-glucopyranoside], the “transport of sugar by TRET1 (substrate selectivity)” value at TRET1 (setting [1]) is given as “transported at a much lower rate”.

With `CO[C@@H]1C[C@@H](C[C@H]2CC[C@H](C)[C@H]([C@@H](C)C(=O)O)O2)O[C@]2(O[C@](C)([C@H]3CC[C@@](C)([C@@H]4O[C@@H]([C@H]5O[C@@](O)(CO)[C@H](C)C[C@@H]5C)C[C@@H]4C)O3)C[C@H]2C)[C@@H]1C` [nigericin], the “effect” value at TRET1 (3 h) is given as “did not significantly affect”.

Consider `OC[C@H]1O[C@@](CO)(O[C@H]2O[C@H](CO)[C@@H](O)[C@H](O)[C@H]2O)[C@@H](O)[C@@H]1O` [sucrose], for which the “transport of sugar by TRET1 (substrate selectivity)” value on TRET1 (setting [1]) is given as “not transported”.

(Values after patent publication US7892789B2, “Method of increasing cell permeability to trehalose by recombinantly producing a trehalose transporter” (priority 2007, dated 2011).)
